# Data: PMC8523698, “Preclinical characterization of an intravenous coronavirus 3CL protease inhibitor for the potential treatment of COVID19” (Nature Communications, 2021)
# Where “and” joins values, the source holds several entries; their conditions need not be identical. Identical values can stand only once. Like-named read-outs stand apart in the source and are kept apart here.
# Columns and labels:
# OATP1B3 = biological target: T1, OATP1B3 (Homo sapiens, UniProt Q9NPD5); experiment: Transporter inhibition using transfected HEK293 cells; details: IC50, Rosuvastatin (0.5 µM)
# T1 sequence (Q9NPD5 1-702): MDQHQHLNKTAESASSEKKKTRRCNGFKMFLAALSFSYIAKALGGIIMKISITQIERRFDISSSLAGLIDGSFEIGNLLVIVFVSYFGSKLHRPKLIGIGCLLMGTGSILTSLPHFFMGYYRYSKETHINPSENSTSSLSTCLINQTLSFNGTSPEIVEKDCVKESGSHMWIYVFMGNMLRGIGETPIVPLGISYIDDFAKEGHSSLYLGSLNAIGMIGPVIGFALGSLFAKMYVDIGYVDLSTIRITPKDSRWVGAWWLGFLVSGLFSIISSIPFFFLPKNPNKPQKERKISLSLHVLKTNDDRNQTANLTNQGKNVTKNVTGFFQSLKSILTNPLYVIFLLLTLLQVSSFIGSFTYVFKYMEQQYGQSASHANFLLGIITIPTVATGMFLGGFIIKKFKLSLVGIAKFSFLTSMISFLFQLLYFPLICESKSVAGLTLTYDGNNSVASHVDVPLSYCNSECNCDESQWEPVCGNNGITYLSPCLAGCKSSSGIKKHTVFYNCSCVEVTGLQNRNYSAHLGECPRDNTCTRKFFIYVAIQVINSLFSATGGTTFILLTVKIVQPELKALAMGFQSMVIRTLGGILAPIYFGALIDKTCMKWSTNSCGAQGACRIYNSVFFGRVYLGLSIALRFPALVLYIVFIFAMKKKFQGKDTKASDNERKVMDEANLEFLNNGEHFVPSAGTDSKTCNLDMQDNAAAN
# CYP1A2 = biological target: T2, CYP1A2 (Homo sapiens, UniProt P05177); experiment: Reversible CYP inhibition in human liver microsomes; details: for activity at 0.01 µM / activity at 0.158 µM / activity at 0.398 µM / activity at 1 µM / activity at 15.8 µM / activity at 39.8 µM / activity at 100 µM: human, microsomes, pH 7.4, Percent of Control Activity
# T2 sequence (P05177 1-516): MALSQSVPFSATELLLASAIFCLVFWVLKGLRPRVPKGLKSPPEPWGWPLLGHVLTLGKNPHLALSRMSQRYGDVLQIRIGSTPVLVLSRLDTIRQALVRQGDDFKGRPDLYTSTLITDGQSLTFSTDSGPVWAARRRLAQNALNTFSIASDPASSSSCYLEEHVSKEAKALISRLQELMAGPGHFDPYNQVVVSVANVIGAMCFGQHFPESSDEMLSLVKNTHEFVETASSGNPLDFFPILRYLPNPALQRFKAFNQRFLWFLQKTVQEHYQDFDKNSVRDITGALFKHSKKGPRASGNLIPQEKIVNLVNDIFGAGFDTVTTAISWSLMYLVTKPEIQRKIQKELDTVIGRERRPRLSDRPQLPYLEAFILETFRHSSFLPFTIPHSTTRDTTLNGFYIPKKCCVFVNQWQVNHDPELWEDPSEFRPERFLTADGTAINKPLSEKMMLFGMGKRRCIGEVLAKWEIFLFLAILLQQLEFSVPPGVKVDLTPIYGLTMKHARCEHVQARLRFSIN
# MDR1/P-gp = MDR1/P-gp (Homo sapiens, UniProt P08183); experiment: Transporter inhibition using membrane vesicles; details: for % PGP Uptake Activity: uptake of N-methyl quinidine by MDR1, single replicates
# Chain of MDR1/P-gp (P08183 whole entry): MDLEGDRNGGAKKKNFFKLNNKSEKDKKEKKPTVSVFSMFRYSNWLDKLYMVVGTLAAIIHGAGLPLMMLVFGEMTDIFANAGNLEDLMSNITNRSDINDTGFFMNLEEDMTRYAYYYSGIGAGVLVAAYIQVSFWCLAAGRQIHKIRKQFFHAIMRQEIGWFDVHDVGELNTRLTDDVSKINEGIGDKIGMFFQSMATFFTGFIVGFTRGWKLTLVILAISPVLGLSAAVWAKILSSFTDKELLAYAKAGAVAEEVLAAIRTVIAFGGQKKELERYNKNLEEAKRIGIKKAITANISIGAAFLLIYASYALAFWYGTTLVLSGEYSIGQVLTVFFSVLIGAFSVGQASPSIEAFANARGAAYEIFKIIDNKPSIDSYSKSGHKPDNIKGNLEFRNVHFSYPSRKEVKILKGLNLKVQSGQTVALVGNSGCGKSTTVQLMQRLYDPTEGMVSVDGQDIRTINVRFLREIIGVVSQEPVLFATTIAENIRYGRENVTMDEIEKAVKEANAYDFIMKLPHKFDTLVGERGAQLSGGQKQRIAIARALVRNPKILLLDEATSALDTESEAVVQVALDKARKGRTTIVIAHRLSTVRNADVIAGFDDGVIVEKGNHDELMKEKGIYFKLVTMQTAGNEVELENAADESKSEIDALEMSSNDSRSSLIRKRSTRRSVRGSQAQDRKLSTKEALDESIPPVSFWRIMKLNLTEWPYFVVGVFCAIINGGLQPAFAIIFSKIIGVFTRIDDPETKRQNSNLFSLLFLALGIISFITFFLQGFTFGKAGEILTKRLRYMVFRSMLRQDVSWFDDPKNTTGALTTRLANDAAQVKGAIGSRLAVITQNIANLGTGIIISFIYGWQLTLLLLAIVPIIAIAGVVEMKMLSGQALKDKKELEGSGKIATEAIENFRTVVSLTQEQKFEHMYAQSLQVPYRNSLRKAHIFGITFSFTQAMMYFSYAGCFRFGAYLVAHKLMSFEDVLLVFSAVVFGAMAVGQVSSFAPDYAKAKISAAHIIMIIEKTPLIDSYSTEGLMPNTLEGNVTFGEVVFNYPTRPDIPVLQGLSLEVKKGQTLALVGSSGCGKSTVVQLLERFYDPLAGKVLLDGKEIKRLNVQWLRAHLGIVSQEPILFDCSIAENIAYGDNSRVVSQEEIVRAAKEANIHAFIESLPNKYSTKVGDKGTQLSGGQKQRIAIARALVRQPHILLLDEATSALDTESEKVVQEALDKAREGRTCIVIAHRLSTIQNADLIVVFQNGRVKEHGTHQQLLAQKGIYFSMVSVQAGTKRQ
# [1] = Plasma protein binding by equilibrium dialysis; details: rat plasma, 3.44 uM; for fraction unbound at 6 h, 3.44 uM: rat, plasma
# [2] = Monkey pharmacokinetic study; details: for Vd: Vdss
# [3] = tested on: Salmonella typhimurium strains and E. coli strain WP2 uvrA; experiment: Bacterial reverse mutation assay; details: with and without metabolic activation
# [4] = monkey, PF-07304814 prodrug dosed […] intravenous, individual monkeys, […]
compound,measurement,setting,value
COc1cccc2[nH]c(C(=O)N[C@@H](CC(C)C)C(=O)N[C@@H](C[C@@H]3CCNC3=O)C(=O)COP(=O)(O)O)cc12 [PF-07304814],IC50,OATP1B3,202 µM and > 130 µM
same,IC50,CYP1A2,> 100 µM
same,Percent of Control Activity,"CYP1A2; CYP 1A2, 0.01 µM, 30-Minute Preincubation, 0.01 µM",103.6% and 101.2%
same,Percent of Control Activity,"CYP1A2; CYP 1A2, 0.01 µM, Zero-Minute Preincubation, 0.01 µM",97.5%
same,Percent of Control Activity,"CYP1A2; CYP 1A2, 0.158 µM, 30-Minute Preincubation, 0.158 µM",95.4% and 101.9%
same,Percent of Control Activity,"CYP1A2; CYP 1A2, 0.158 µM, Zero-Minute Preincubation, 0.158 µM",97.0% and 100.9%
same,Percent of Control Activity,"CYP1A2; CYP 1A2, 0.398 µM, 30-Minute Preincubation, 0.398 µM",101.4% and 101.2%
same,Percent of Control Activity,"CYP1A2; CYP 1A2, 0.398 µM, Zero-Minute Preincubation, 0.398 µM",96.0% and 97.7%
same,Percent of Control Activity,"CYP1A2; CYP 1A2, 1 µM, 30-Minute Preincubation, 1 µM",102.8% and 101.6%
same,Percent of Control Activity,"CYP1A2; CYP 1A2, 1 µM, Zero-Minute Preincubation, 1 µM",94.7% and 96.1%
same,Percent of Control Activity,"CYP1A2; CYP 1A2, 15.8 µM, 30-Minute Preincubation, 15.8 µM",103.2%
same,Percent of Control Activity,"CYP1A2; CYP 1A2, 39.8 µM, 30-Minute Preincubation, 39.8 µM",101.7% and 102.7%
same,Percent of Control Activity,"CYP1A2; CYP 1A2, 39.8 µM, Zero-Minute Preincubation, 39.8 µM",98.4% and 99.6%
same,Percent of Control Activity,"CYP1A2; CYP 1A2, 100 µM, 30-Minute Preincubation, 100 µM",104.3% and 102.5%
same,Percent of Control Activity,"CYP1A2; CYP 1A2, 100 µM, Zero-Minute Preincubation, 100 µM",94.4% and 97.1%
same,IC50,"CYP1A2; Phenacetin O-dealkylation, 30-minute preincubation (T30)",> 100 µM
same,activity at 0.01 µM,"CYP1A2; CYP 1A2, 0.01 µM, 30-Minute Preincubation",96.7%
same,activity at 0.01 µM,"CYP1A2; CYP 1A2, 0.01 µM, Zero-Minute Preincubation",100%
same,activity at 0.158 µM,"CYP1A2; CYP 1A2, 0.158 µM, 30-Minute Preincubation",102%
same,activity at 0.158 µM,"CYP1A2; CYP 1A2, 0.158 µM, Zero-Minute Preincubation",96.4%
same,activity at 0.398 µM,"CYP1A2; CYP 1A2, 0.398 µM, 30-Minute Preincubation",102%
same,activity at 0.398 µM,"CYP1A2; CYP 1A2, 0.398 µM, Zero-Minute Preincubation",98.5%
same,activity at 1 µM,"CYP1A2; CYP 1A2, 1 µM, 30-Minute Preincubation",100%
same,activity at 1 µM,"CYP1A2; CYP 1A2, 1 µM, Zero-Minute Preincubation",99.4%
same,activity at 15.8 µM,"CYP1A2; CYP 1A2, 15.8 µM, 30-Minute Preincubation",102%
same,activity at 15.8 µM,"CYP1A2; CYP 1A2, 15.8 µM, Zero-Minute Preincubation",100%
same,activity at 39.8 µM,"CYP1A2; CYP 1A2, 39.8 µM, 30-Minute Preincubation",102%
same,activity at 39.8 µM,"CYP1A2; CYP 1A2, 39.8 µM, Zero-Minute Preincubation",98.5%
same,activity at 100 µM,"CYP1A2; CYP 1A2, 100 µM, 30-Minute Preincubation",103%
same,activity at 100 µM,"CYP1A2; CYP 1A2, 100 µM, Zero-Minute Preincubation",97.8%
same,IC50,"MDR1/P-gp; IC50, N-methyl quinidine (0.2 µM)",> 300 µM
same,% PGP Uptake Activity,MDR1/P-gp; inhibitor concentration 0.0732 uM,123.862% and 96.8629% and 149.319%
same,% PGP Uptake Activity,MDR1/P-gp; inhibitor concentration 0.2930 uM,106.737% and 95.0116% and 107.663%
same,% PGP Uptake Activity,MDR1/P-gp; inhibitor concentration 1.1719 uM,108.588% and 115.068% and 109.514%
same,% PGP Uptake Activity,MDR1/P-gp; inhibitor concentration 4.6875 uM,120.159% and 118.308% and 119.234%
same,% PGP Uptake Activity,MDR1/P-gp; inhibitor concentration 18.7500 uM,122.011% and 113.68% and 118.308%
same,% PGP Uptake Activity,MDR1/P-gp; inhibitor concentration 300.0000 uM,73.875% and 64.7724% and 99.64%
same,"fraction unbound at 6 h, 3.44 uM","[1]; Sprague-Dawley, pH 7.4, fraction unbound Geomean, n=12",0.379
same,"fraction unbound at 6 h, 3.44 uM","[1]; both, Sprague Dawley, pH 7.4, Individual fraction unbound, Sprague Dawley, male and female, Day 1",0.404
same,"fraction unbound at 6 h, 3.44 uM","[1]; both, Sprague Dawley, pH 7.4, Individual fraction unbound, Sprague Dawley, male and female, Day 2",0.362
same,"fraction unbound at 6 h, 3.44 uM","[1]; both, Sprague Dawley, pH 7.4, Individual fraction unbound, Sprague Dawley, male and female, Day 3",0.404
same,Individual fraction unbound,"[1]; Sprague Dawley, male and female, Day 1",0.384 and 0.405 and 0.491
same,Individual fraction unbound,"[1]; Sprague Dawley, male and female, Day 2",0.301 and 0.338 and 0.325
same,Individual fraction unbound,"[1]; Sprague Dawley, male and female, Day 3",0.406 and 0.385 and 0.381
same,clearance,"[2]; male, cynomolgus monkey, plasma, iv, Cl, monkey IV (n=2, range), PF-07304814 […], PF-00835231 1.0mg/kg",191 mL/min/kg
same,half-life,"[2]; male, cynomolgus monkey, plasma, iv, Terminal T1/2, monkey IV (n=2, range), PF-07304814 […], PF-00835231 1.0mg/kg",2.6 h
same,Vd,"[2]; male, cynomolgus monkey, plasma, iv, monkey IV (n=2, range), PF-07304814 […], PF-00835231 1.0mg/kg",1.8 L/kg
same,clearance,"[2]; male, cynomolgus monkey, plasma, iv, […], Clearance, Mean Data, monkey, PF-07304814 prodrug dosed […] intravenous, mean",191 mL/min/kg
same,clearance,"[2]; male, cynomolgus monkey, plasma, iv, […], Clearance, monkey, PF-07304814 prodrug dosed […] intravenous, individual monkeys",252 mL/min/kg
same,half-life,"[2]; male, cynomolgus monkey, plasma, iv, […], Half life, Mean Data, monkey, PF-07304814 prodrug dosed […] intravenous, mean",2.6 h
same,half-life,"[2]; male, cynomolgus monkey, plasma, iv, […], Half life, monkey, PF-07304814 prodrug dosed […] intravenous, individual monkeys",2.2 h
same,Vd,"[2]; male, cynomolgus monkey, plasma, iv, […], Mean Data, monkey, PF-07304814 prodrug dosed […] intravenous, mean",1.78 L/kg
same,%unchanged in urine,"[2]; monkey IV, PF-07304814 […], PF-00835231 1.0mg/kg",< 0.1%
same,"Total Concn, Mean Data","[2]; monkey plasma, PF-07304814 prodrug dosed […] intravenous, time 7 h, mean, BLQ=0.1ng/mL",BLQ
same,Urine Concn,"[2]; monkey urine 0-7h, PF-07304814 prodrug dosed […] intravenous, individual monkeys, BLQ=1ng/mL for urine",BLQ
same,Half life,[2]; [4],3.0 h
same,clearance,[2]; [4],129 mL/min/kg
same,bacterial reverse mutation assay result,[3],negative
